Measured values as given in ChEMBL document CHEMBL1201862, “PubChem BioAssay data set” (2004).
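Compound exposure: 48 hours, 5 concentrations, 96-well plates. Here, GI50 denotes the concentration required for 50% inhibition of growth.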 The source made the active and inactive calls. Rule as the data show it: active = GI50 up to about 1.1 µM and inactive = higher. Non-standard residues stand in square brackets, D forms with d. Residues, ends and D or L forms follow the SMILES beside them. ξ: configuration not given here. *: point of attachment. Cbz = O=C(OCc1ccccc1)*; ξK = NCCCCC(N)C(=O)O

Key:
Experiment in all cases: DTP human tumour cell line panel, 48 h
PC-3 = test system: PC-3
NCI-H226 = test system: NCI-H226
NCI/ADR-RES = test system: NCI/ADR-RES
HCC 2998 = test system: HCC 2998
MOLT-4 = test system: MOLT-4
UACC-62 = test system: UACC-62
SK-MEL-28 = test system: SK-MEL-28
EKVX = test system: EKVX
HCT-15 = test system: HCT-15
CCRF-CEM = test system: CCRF-CEM
NCI-H23 = test system: NCI-H23
786-0 = test system: 786-0
U-251 = test system: U-251
NCI-H522 = test system: NCI-H522
IGROV-1 = test system: IGROV-1
SK-MEL-5 = test system: SK-MEL-5
SNB-19 = test system: SNB-19
MDA-MB-231 = test system: MDA-MB-231
K562 = test system: K562
RPMI-8226 = test system: RPMI-8226

| Compound | GI50 (PC-3) | GI50 (NCI-H226) | GI50 (NCI/ADR-RES) | GI50 (HCC 2998) | GI50 (MOLT-4) | GI50 (UACC-62) | GI50 (SK-MEL-28) | GI50 (EKVX) | GI50 (HCT-15) [µM] | GI50 (CCRF-CEM) | GI50 (NCI-H23) | GI50 (786-0) | GI50 (U-251) | GI50 (NCI-H522) | GI50 (IGROV-1) | GI50 (SK-MEL-5) | GI50 (SNB-19) | GI50 (MDA-MB-231) | GI50 (K562) | GI50 (RPMI-8226) |
| --- | --- | --- | --- | --- | --- | --- | --- | --- | --- | --- | --- | --- | --- | --- | --- | --- | --- | --- | --- | --- |
| CC(C)=C[C@@H]1O[C@H](O)[C@@H]([C@H]2CC[C@@]3(C)[C@@H]4CC[C@H]5C(C)(C)C(=O)CC[C@@]56C[C@@]46CC[C@]23C)[C@@H]1O | 13 µM (inactive) | 11.7 µM (inactive) | 16.7 µM (inactive) | 18.6 µM (inactive) | 14.1 µM (inactive) | 18.1 µM (inactive) | 22.8 µM (inactive) | 18.5 µM (inactive) | 16.9 | 9.93 µM (inactive) | 16.4 µM (inactive) | 14.3 µM (inactive) | 17 µM (inactive) | 13.1 µM (inactive) | 19.5 µM (inactive) | 17.7 µM (inactive) | 20.9 µM (inactive) | 19.5 µM (inactive) | 15.6 µM (inactive) | 3.14 µM (inactive) |
| CNc1ccc([S+]([O-])Nc2ccc(OC)cc2)cc1 (stereo not given) | > 100 µM (inactive) | > 100 µM (inactive) | 27.9 µM (inactive) | 50.2 µM (inactive) | 51.8 µM (inactive) | > 10 µM (inactive) | 93.3 µM (inactive) | 70.1 µM (inactive) | > 100 | 46.5 µM (inactive) | > 100 µM (inactive) | 74.8 µM (inactive) | 43.4 µM (inactive) | > 100 µM (inactive) | 11.4 µM (inactive) | 19.3 µM (inactive) | > 100 µM (inactive) | 17.1 µM (inactive) | 21.3 µM (inactive) | > 100 µM (inactive) |
| Nc1ccccc1-n1c2c(c3ccccc3c1=O)C(=O)c1ccccc1-2 | 16.1 µM (inactive) | < 0.01 µM (active) | 14.6 µM (inactive) | 21.8 µM (inactive) | 4.25 µM (inactive) | 17.2 µM (inactive) | 36.5 µM (inactive) | 27.6 µM (inactive) | 38 | 48.9 µM (inactive) | 7.5 µM (inactive) | 7.62 µM (inactive) | 15.2 µM (inactive) | 6.58 µM (inactive) | 9.68 µM (inactive) | 10.4 µM (inactive) | 5 µM (inactive) | 23.9 µM (inactive) | > 100 µM (inactive) | 60.1 µM (inactive) |
| O=C1NCC2(CCN(CCCC3(c4ccc(F)cc4)OCCO3)CC2)N1c1ccccc1 | > 100 µM (inactive) | > 100 µM (inactive) | > 100 µM (inactive) | > 100 µM (inactive) | > 100 µM (inactive) | > 100 µM (inactive) | > 100 µM (inactive) | > 100 µM (inactive) | > 100 | > 100 µM (inactive) | > 100 µM (inactive) | > 100 µM (inactive) | > 100 µM (inactive) | > 100 µM (inactive) | > 100 µM (inactive) | > 100 µM (inactive) | > 100 µM (inactive) | > 100 µM (inactive) | > 100 µM (inactive) | > 100 µM (inactive) |
| C/C(=N\NC(=S)Nc1ccc([N+](=O)[O-])cc1)c1nc2cccnc2[nH]1 | 1.24 µM (inactive) | 0.504 µM (active) | 1.13 µM (inactive) | 1.15 µM (inactive) | 0.377 µM (active) | 0.447 µM (active) | 0.698 µM (active) | 0.227 µM (active) | 0.617 | 0.381 µM (active) | 0.713 µM (active) | 0.748 µM (active) | 0.251 µM (active) | 1.06 µM (active) | 0.942 µM (active) | 0.991 µM (active) | 0.824 µM (active) | 1.31 µM (inactive) | 1.55 µM (inactive) | 1.87 µM (inactive) |
| C=CCN(c1cc(O)c2c(c(C)cn2S(=O)(=O)c2ccccc2)c1[N+](=O)[O-])S(C)(=O)=O | > 100 µM (inactive) | > 100 µM (inactive) | > 100 µM (inactive) | > 100 µM (inactive) | 42.4 µM (inactive) | > 10 µM (inactive) | > 100 µM (inactive) | 76.9 µM (inactive) | > 100 | > 100 µM (inactive) | > 100 µM (inactive) | > 100 µM (inactive) | > 100 µM (inactive) | 65.9 µM (inactive) | > 100 µM (inactive) | 51.4 µM (inactive) | > 100 µM (inactive) | > 100 µM (inactive) | 38.5 µM (inactive) | 61.2 µM (inactive) |
| COc1ccc(C(=O)C#Cc2cnc(OC)nc2OC)cc1 | 1.26 µM (inactive) | 1.47 µM (inactive) | 1.82 µM (inactive) | 1.84 µM (inactive) | 0.0531 µM (active) | 1.11 µM (active) | 1.61 µM (inactive) | 1.83 µM (inactive) | 1.02 | 0.13 µM (active) | 1.48 µM (inactive) | 1.94 µM (inactive) | 1.33 µM (inactive) | 1.39 µM (inactive) | 1.45 µM (inactive) | 1.34 µM (inactive) | 12.2 µM (inactive) | 32400 µM (inactive) | 0.367 µM (active) | 1.93 µM (inactive) |
| CC(C)[C@@H]1CC[C@@H](C)C[C@H]1OC(=O)/C=C1/C2C=CC(O2)C1C(=O)O[C@@H]1C[C@H](C)CC[C@H]1C(C)C (stereo not given in full) | 56 µM (inactive) | 28.4 µM (inactive) | > 100 µM (inactive) | 13.5 µM (inactive) | 43.8 µM (inactive) | > 100 µM (inactive) | > 100 µM (inactive) | > 100 µM (inactive) | > 100 | 45.5 µM (inactive) | > 100 µM (inactive) | > 100 µM (inactive) | > 100 µM (inactive) | 41.8 µM (inactive) | > 100 µM (inactive) | > 100 µM (inactive) | > 100 µM (inactive) | > 100 µM (inactive) | 51.4 µM (inactive) | > 100 µM (inactive) |
| O=C(O)c1ccc(C(=O)c2ccccc2)c(C(=O)O)c1 | > 100 µM (inactive) | > 100 µM (inactive) | > 100 µM (inactive) | > 100 µM (inactive) | > 100 µM (inactive) | > 100 µM (inactive) | > 100 µM (inactive) | > 100 µM (inactive) | > 100 | > 100 µM (inactive) | > 100 µM (inactive) | > 100 µM (inactive) | > 100 µM (inactive) | > 100 µM (inactive) | > 100 µM (inactive) | > 100 µM (inactive) | > 100 µM (inactive) | > 100 µM (inactive) | > 100 µM (inactive) | > 100 µM (inactive) |
| CC(=O)NC1C(OCc2ccccc2)OC(CO)C(O)C1OC(C)C(=O)N[C@@H](C)C(=O)N[C@H](CCC(=O)NCCNCCNc1c2ccccc2nc2cccc([N+](=O)[O-])c12)C(N)=O (stereo not given in full) | 0.0321 µM (active) | 0.149 µM (active) | 1.73 µM (inactive) | 0.0152 µM (active) | 0.0935 µM (active) | 0.0659 µM (active) | 0.245 µM (active) | 0.199 µM (active) | 0.153 | 0.201 µM (active) | 0.022 µM (active) | 0.0601 µM (active) | 0.0944 µM (active) | < 0.01 µM (active) | 0.0385 µM (active) | 0.0159 µM (active) | 0.29 µM (active) | 0.177 µM (active) | 0.0311 µM (active) | 0.0698 µM (active) |
| C=C(C)C(CC=C(C)C)CC12CC(CC=C(C)C)C(C)(C)C(CC=C(C)C)(C(=O)C(Cc3ccc(O)c(O)c3)=C1O)C2=O (stereo not given) | > 100 µM (inactive) | > 100 µM (inactive) | > 100 µM (inactive) | > 100 µM (inactive) | 50.6 µM (inactive) | 85.3 µM (inactive) | > 100 µM (inactive) | > 100 µM (inactive) | > 100 | 59.6 µM (inactive) | > 100 µM (inactive) | > 100 µM (inactive) | > 100 µM (inactive) | > 100 µM (inactive) | > 100 µM (inactive) | > 100 µM (inactive) | > 100 µM (inactive) | > 100 µM (inactive) | 99.3 µM (inactive) | > 100 µM (inactive) |
| NCCCCC(NC(=O)OCc1ccccc1)C(=O)NCC(N)=O (stereo not given) (Cbz-[ξK]-Gly-NH2) | > 100 µM (inactive) | > 100 µM (inactive) | > 100 µM (inactive) | > 100 µM (inactive) | > 100 µM (inactive) | > 100 µM (inactive) | > 100 µM (inactive) | > 100 µM (inactive) | > 100 | > 100 µM (inactive) | > 100 µM (inactive) | > 100 µM (inactive) | > 100 µM (inactive) | > 100 µM (inactive) | > 100 µM (inactive) | > 100 µM (inactive) | > 100 µM (inactive) | > 100 µM (inactive) | > 100 µM (inactive) | > 100 µM (inactive) |
| C=C[C@]1(C)CC[C@]2(C)C(CC[C@@]3(C)C2C[C@H](O)[C@H](O)[C@@]3(C)O)C1 (stereo not given in full) | > 100 µM (inactive) | > 100 µM (inactive) | > 100 µM (inactive) | > 100 µM (inactive) | > 100 µM (inactive) | > 100 µM (inactive) | > 100 µM (inactive) | > 100 µM (inactive) | > 100 | > 100 µM (inactive) | > 100 µM (inactive) | > 100 µM (inactive) | > 100 µM (inactive) | > 100 µM (inactive) | > 100 µM (inactive) | > 100 µM (inactive) | > 100 µM (inactive) | > 100 µM (inactive) | > 100 µM (inactive) | > 100 µM (inactive) |
